Measured values published in patent publication US20240294659A1, “Method and Compositions for Inducing Differentiation of Myeloid Derived Suppressor Cell to Treat Cancer and Infectious Diseases” (OSE Immunotherapeutics, priority 2014, published 2024).

What was measured:
[1] = tested on: Hepa1.6 mouse hepatoma cells; experiment: Hepatocellular carcinoma mice model; format: in vivo; conditions: Sorafenib 40 mg/kg daily oral gavage, day 0 to day 28 (FIG. 10)
Description: Eight-weeks-old C57B1/6J male mice received 2.5×10^6Hepa1.6 mouse hepatoma cells in 100 μL through the portal vein, as previously described (Gauttier et al., 2014). Four and eight days after tumour inoculation, mice were injected intraperitoneally with 100 μg of rat anti-CD137 mAb (4-1BB mAb), or with 300 μg of anti-mouse SIRPα monoclonal antibody (clone P84 from Merck Millipore) or both antibodies or an irrelevant control antibody (clone 3G8) 3 times/week for 4 weeks (FIG. 17A) or with 200 μg of the anti-PD-LI mAb (clone 10F-9G2 from BioXCell) or received both antibodies (anti-SIRPα+anti-PDL1) for 4 weeks (FIG. 17B). Sorafenib (Nexavar-Bayer) treated mice received daily 100 μl oral gavage of 40 mg/kg from day 0 to day 28 (FIG. 10). The overall survival was analyzed. Some mice were sacrificed at day 14 after tumor inoculation for leukocytes tumor infiltration quantification and characterization by isolation of non-parenchymal cells of the liver by a Percoll gradient and FACS analysis.

rat MDSC = experiment: Rat MDSC two-day culture with anti-SIRPα antibody, with or without GM-CSF, phenotype by flow cytometry; format: cell-based; conditions: two days, GM-CSF 10 ng/ml with or without anti-SIRPα 10 μg/ml (FIG. 4)
Excerpt: Human blood MDSC were characterized and sorted by flow cytometry as follow: CD11b^+CD33^+HLA-DR^low/−CD14^+CD15^− for Mo-MDSC and CD11b^+CD33^+HLA-DR^− CD14^− CD15+ for PMN-MDSC. Rat blood and spleen MDSC were characterized and sorted by flow cytometry as CD11b^+MHC ClassII-NKRP1^int (both Mo-MDSC and PMN-MDSC was included in this phenotype). Mouse MDSC were characterize as follow: CD11b^+MHC Class II-Ly6C^high Ly6G^− for Mo-MDSC and CD11b^+MHC Class II-Ly6C^+Ly6G^+ for PMN-MDSC.
MDSC were purified by flow cytometry according to previously described phenotypes. Purity of cells sorted by flow cytometry was higher than 99%. Freshly purified MDSC were then seeded at 50×10^3 cells/well in 96-well flat-bottomed microtiter plates and cultured for two days in RPMI-1640 medium (supplemented with 2 mM L-glutamine, 100 U/ml penicillin, 0.1 mg/ml streptomycin, 10% heat-inactivated fetal calf serum, 1% nonessential amino acids, 5 mM HEPES, 1 mM sodium pyruvate, and 1 μM 2-mercaptoethanol) and with irrelevant control antibody or anti-SIRPα monoclonal antibody (clone SE7C2 (Santa Cruz Biotechnology) and SE5A5 (Biolegend) for human MDSC or clone ED9 (AbD Serotec) for rat MDSC) at 10 μg/ml. In a different setting, recombinant GM-CSF (10 ng/ml) was also added to force the macrophages/dendritic cells differentiation. […]

| Molecule | mice rescued (overall survival) [1] | differentiation of MDSC (MHC Class II, CD103, CD11b, CD80) (rat MDSC) |
| --- | --- | --- |
| CNC(=O)c1cc(Oc2ccc(NC(=O)Nc3ccc(Cl)c(C(F)(F)F)c3)cc2)ccn1 [Sorafenib] | 60% |  |
| GM-CSF: recombinant GM-CSF added to force the macrophages/dendritic cells differentiation |  | induce the differentiation of MDSC in mature MHC Class II^+ myeloids cells |
